Experiments:
[1] = tested on: patients with schizophrenia or schizoaffective disorders; assay: InterSePT pharmacogenetic analysis: DAT1 3'UTR VNTR polymorphism vs Type 1 event / drug response; format: in vivo, human; settings: for Adjusted Hazard Ratio (95% CI), association between VNTR polymorphism and Type 1 event: Cox model adjusted for age, gender, substance abuse, lifetime suicide attempts; for Unadjusted Hazard Ratio (95% CI), association between VNTR polymorphism and Type 1 event: Cox proportional hazards model
Protocol: Association between a VNTR polymorphism in the 3′UTR region of the DAT1 gene and clozapine response. The objective of this EXAMPLE was to evaluate potential association between a VNTR polymorphism in the 3′UTR region of the Dopamine Transporter 1 gene (SLC6A3; DAT1) and drug response in the patients with schizophrenia or schizoaffective disorders treated with clozapine.
A retrospective pharmacogenetic analysis was conducted in an attempt to evaluate potential association between a variable number of tandem repeats (VNTR) polymorphism in the 3′UTR region of the DAT1 gene and drug response in the patients with schizophrenia or schizoaffective disorders treated with clozapine.
A multicenter, randomized, two-year study comparing the risk for suicidal behaviour in patients treated with clozapine vs olanzapine had already been conducted in patients with schizophrenia or schizoaffective disorders (see above). […] See, published PCT patent application WO 2004/074513.
Genotyping. Four hundred and two samples from the patients enrolled in the InterSePT study (see above) were collected and genotyped for the VNTR polymorphism. A total of 402 subjects enrolled in the InterSePT study consented to Pharmacogenetics study in accordance with protocols approved by local ethics committees. 15 ml of blood were collected from the patients at the trial sites. The DNA was extracted by Covance (Indianapolis, USA) using the PUREGENE™ DNA Isolation Kit (D50K) according to the manufacturer's recommendations. VNTR genotyping was performed using PCR approach as described by Kidd (Kidd Laboratory, http://info.med.yale.edu/genetics/kkidd/SLC6A3—3VNTR.html). The sense and antisense PCR primers were 5′-GGTGTAGGGAACGGCCTGAGAG-3′ (SEQ ID NO:3) and 5′-CTTCCTGGAGGTCACGGCTCAAGG-3′ (SEQ ID NO:4), respectively. Approximately 100-200 ng of genomic DNA was needed for each assay. Thirty cycles of PCR were performed with the condition of 94° C. (30″), 62° C. (30″) and 72° C. (30″). PCR products were analyzed using 2% agarose gel.
Clinical assessments. For the primary efficacy variable, time (in days, after randomization) to meeting any one of the following two criteria: (a) a significant suicide attempt; and (b) hospitalization due to imminent suicide risk. Type 1 Event is defined as combination of above two items. For secondary efficacy variables, the following were determined: (a) percentage of subjects with significant suicide attempts; (b) percentage of subjects with hospitalization due to imminent suicide risk; (c) change from baseline in the total score of the Positive and Negative Syndrome Scale (PANSS); (d) change from baseline in the Positive subtotal of PANSS; and (e) change from baseline in the Negative subtotal of PANSS.
Statistic analysis. The SAS Version 8.2 for Windows package was used for statistical analysis. The continuous and dischotomous variables in demographic differences between the genotype groups were compared using non-parametric ANOVA and Fisher's exact test, respectively. The differential effects of genotypes on the time to Type 1 event were evaluated using log rank test. Age, gender, substance abuse, and lifetime suicide attempts were adjusted in further analysis using the Cox proportional hazards model.

[2] = tested on: patients with schizophrenia or schizoaffective disorders; assay: as above; format: in vivo, human
[3] = All with schizoaffective disorder, genotype L/L (10≦/10≦)
[4] = All with schizoaffective disorder, genotype S/L (10≦/9≧)
[5] = All with schizoaffective disorder, genotype S/S (9≧/9≧)
[6] = All with schizophrenia, genotype L/L (10≦/10≦)
[7] = All with schizophrenia, genotype S/L (10≦/9≧)
[8] = All with schizophrenia, genotype S/S (9≧/9≧)
[9] = Caucasian, VNTR genotype 9≧/9≧, end of study
[10] = Caucasian, VNTR genotype 10≦/9≧, end of study
[11] = Caucasian, VNTR genotype 10≦/10≦, end of study
[12] = Caucasians with schizoaffective disorder, genotype L/L (10≦/10≦)
[13] = Caucasians with schizoaffective disorder, genotype S/L (10≦/9≧)
[14] = Caucasians with schizoaffective disorder, genotype S/S (9≧/9≧)
[15] = Caucasians with schizophrenia, genotype L/L (10≦/10≦)
[16] = Caucasians with schizophrenia, genotype S/L (10≦/9≧)
[17] = Caucasians with schizophrenia, genotype S/S (9≧/9≧)
[18] = Whole race group, VNTR genotype 9≧/9≧, end of study
[19] = Whole race group, VNTR genotype 10≦/9≧, end of study
[20] = Whole race group, VNTR genotype 10≦/10≦, end of study

For `CN1CCN(C2=Nc3cc(Cl)ccc3Nc3ccccc32)CC1` [Clozapine, 8-chloro-11-(4-methyl-1-piperazinyl)-5H-dibenzo[be][1,4]diazepine], the “End point Type 1 event: No” value [1, 3] was 30 (75%) numbers of subjects (%), the “End point Type 1 event: Yes” value [1, 3] was 10 (25%) numbers of subjects (%) and the “End point Type 1 event: No” value [1, 4] was 25 (83%) numbers of subjects (%). The “End point Type 1 event: Yes” value [1, 4] was 5 (17%) numbers of subjects (%), the “End point Type 1 event: No” value [1, 5] was 7 (70%) numbers of subjects (%) and the “End point Type 1 event: Yes” value [1, 5] was 3 (30%) numbers of subjects (%). For the same compound, the “End point Type 1 event: No” value [1, 6] was 53 (87%) numbers of subjects (%), the “End point Type 1 event: Yes” value [1, 6] was 8 (13%) numbers of subjects (%) and the “End point Type 1 event: No” value [1, 7] was 35 (87%) numbers of subjects (%). For the same compound, the “End point Type 1 event: Yes” value [1, 7] was 5 (13%) numbers of subjects (%), the “End point Type 1 event: No” value [1, 8] was 4 (50%) numbers of subjects (%) and the “End point Type 1 event: Yes” value [1, 8] was 4 (50%) numbers of subjects (%). For the same compound, the “End point Type 1 event: No” value [1, 9] was 9 (56%) numbers of subjects (%), the “End point Type 1 event: Yes” value [1, 9] was 7 (44%) numbers of subjects (%) and the “End point Type 1 event: No” value [1, 10] was 45 (85%) numbers of subjects (%). The “End point Type 1 event: Yes” value [1, 10] was 8 (15%) numbers of subjects (%), the “End point Type 1 event: No” value [1, 11] was 67 (83%) numbers of subjects (%) and the “End point Type 1 event: Yes” value [1, 11] was 14 (17%) numbers of subjects (%). For the same compound, the “End point Type 1 event: No” value [1, 12] was 28 (76%) numbers of subjects (%), the “End point Type 1 event: Yes” value [1, 12] was 9 (24%) numbers of subjects (%) and the “End point Type 1 event: No” value [1, 13] was 22 (85%) numbers of subjects (%). For the same compound, the “End point Type 1 event: Yes” value [1, 13] was 4 (15%) numbers of subjects (%), the “End point Type 1 event: No” value [1, 14] was 7 (70%) numbers of subjects (%) and the “End point Type 1 event: Yes” value [1, 14] was 3 (30%) numbers of subjects (%). The “End point Type 1 event: No” value [1, 15] was 39 (89%) numbers of subjects (%), the “End point Type 1 event: Yes” value [1, 15] was 5 (11%) numbers of subjects (%) and the “End point Type 1 event: No” value [1, 16] was 23 (85%) numbers of subjects (%). For the same compound, the “End point Type 1 event: Yes” value [1, 16] was 4 (15%) numbers of subjects (%), the “End point Type 1 event: No” value [1, 17] was 2 (33%) numbers of subjects (%) and the “End point Type 1 event: Yes” value [1, 17] was 4 (67%) numbers of subjects (%). For the same compound, the “Adjusted Hazard Ratio (95% CI), association between VNTR polymorphism and Type 1 event” value ([1]; Caucasians) was 0.296 (0.120-0.733), the “Unadjusted Hazard Ratio (95% CI), association between VNTR polymorphism and Type 1 event” value (“Unadjusted Hazard Ratio (95% CI)” below) ([1]; Caucasians) was 0.307 (0.130-0.723) and the “End point Type 1 event: No” value [1, 18] was 11 (61%) numbers of subjects (%). The “End point Type 1 event: Yes” value [1, 18] was 7 (39%) numbers of subjects (%), the “End point Type 1 event: No” value [1, 19] was 60 (86%) numbers of subjects (%) and the “End point Type 1 event: Yes” value [1, 19] was 10 (14%) numbers of subjects (%). The “End point Type 1 event: No” value [1, 20] was 83 (82%) numbers of subjects (%), the “End point Type 1 event: Yes” value [1, 20] was 18 (18%) numbers of subjects (%) and the “patients calculated to be poor responders” value ([1]; according to the SLC6A3 genotypes) was “about 10%”. The “Adjusted Hazard Ratio (95% CI), association between VNTR polymorphism and Type 1 event” value ([1]; whole population) was 0.396 (0.167-0.936), the “Unadjusted Hazard Ratio (95% CI)” value ([1]; whole population) was 0.342 (0.148-0.788) and the “patients who experienced Type 1 events at the end of study” value ([2]; subpopulation with the two risk factors (VNTR in 3'-UTR and exon 9 polymorphism of SLC6A3)) was “About 40%”. For the same compound, the “patients who had Type 1 events at the end of study” value ([2]; subpopulation without the two risk factors (VNTR in 3'-UTR and exon 9 polymorphism of SLC6A3)) was 15%.

In the case of `Cc1cc2c(s1)Nc1ccccc1N=C2N1CCN(C)CC1` [Olanzapine, olanzapine], the “End point Type 1 event: No” value [1, 3] is reported as 22 (60%) numbers of subjects (%), the “End point Type 1 event: Yes” value [1, 3] is reported as 15 (40%) numbers of subjects (%) and the “End point Type 1 event: No” value [1, 4] is reported as 22 (67%) numbers of subjects (%). For the same compound, the “End point Type 1 event: Yes” value [1, 4] was 11 (33%) numbers of subjects (%), the “End point Type 1 event: No” value [1, 5] was 4 (57%) numbers of subjects (%) and the “End point Type 1 event: Yes” value [1, 5] was 3 (43%) numbers of subjects (%). For the same compound, the “End point Type 1 event: No” value [1, 6] was 50 (82%) numbers of subjects (%), the “End point Type 1 event: Yes” value [1, 6] was 11 (18%) numbers of subjects (%) and the “End point Type 1 event: No” value [1, 7] was 32 (76%) numbers of subjects (%). The “End point Type 1 event: Yes” value [1, 7] was 10 (24%) numbers of subjects (%), the “End point Type 1 event: No” value [1, 8] was 8 (80%) numbers of subjects (%) and the “End point Type 1 event: Yes” value [1, 8] was 2 (20%) numbers of subjects (%). The “End point Type 1 event: No” value [1, 9] was 6 (60%) numbers of subjects (%), the “End point Type 1 event: Yes” value [1, 9] was 4 (40%) numbers of subjects (%) and the “End point Type 1 event: No” value [1, 10] was 45 (76%) numbers of subjects (%). For the same compound, the “End point Type 1 event: Yes” value [1, 10] was 14 (24%) numbers of subjects (%), the “End point Type 1 event: No” value [1, 11] was 59 (76%) numbers of subjects (%) and the “End point Type 1 event: Yes” value [1, 11] was 19 (24%) numbers of subjects (%). For the same compound, the “End point Type 1 event: No” value [1, 12] was 22 (67%) numbers of subjects (%), the “End point Type 1 event: Yes” value [1, 12] was 11 (33%) numbers of subjects (%) and the “End point Type 1 event: No” value [1, 13] was 21 (75%) numbers of subjects (%). For the same compound, the “End point Type 1 event: Yes” value [1, 13] was 7 (25%) numbers of subjects (%), the “End point Type 1 event: No” value [1, 14] was 3 (50%) numbers of subjects (%) and the “End point Type 1 event: Yes” value [1, 14] was 3 (50%) numbers of subjects (%). For the same compound, the “End point Type 1 event: No” value [1, 15] was 37 (82%) numbers of subjects (%), the “End point Type 1 event: Yes” value [1, 15] was 8 (18%) numbers of subjects (%) and the “End point Type 1 event: No” value [1, 16] was 24 (77%) numbers of subjects (%). For the same compound, the “End point Type 1 event: Yes” value [1, 16] was 7 (23%) numbers of subjects (%), the “End point Type 1 event: No” value [1, 17] was 3 (75%) numbers of subjects (%) and the “End point Type 1 event: Yes” value [1, 17] was 1 (25%) numbers of subjects (%). For the same compound, the “Adjusted Hazard Ratio (95% CI), association between VNTR polymorphism and Type 1 event” value ([1]; Caucasians) was 0.542 (0.185-1.590), the “Unadjusted Hazard Ratio (95% CI)” value ([1]; Caucasians) was 0.548 (0.194-1.547) and the “End point Type 1 event: No” value [1, 18] was 12 (71%) numbers of subjects (%). The “End point Type 1 event: Yes” value [1, 18] was 5 (29%) numbers of subjects (%), the “End point Type 1 event: No” value [1, 19] was 54 (72%) numbers of subjects (%) and the “End point Type 1 event: Yes” value [1, 19] was 21 (28%) numbers of subjects (%). The “End point Type 1 event: No” value [1, 20] was 72 (73%) numbers of subjects (%), the “End point Type 1 event: Yes” value [1, 20] was 26 (27%) numbers of subjects (%) and the “Adjusted Hazard Ratio (95% CI), association between VNTR polymorphism and Type 1 event” value ([1]; whole population) was 0.824 (0.317-2.138). For the same compound, the “Unadjusted Hazard Ratio (95% CI)” value ([1]; whole population) was 0.886 (0.353-2.225).

— patent publication US20090281090A1, “BIOMARKERS FOR THE PREDICTION OF RESPONSIVENESS TO CLOZAPINE TREATMENT” (NOVARTIS AG, priority 2004, published 2009)
